In ChEMBL document CHEMBL1817560, “Selectivity of kinase inhibitor fragments” (J Med Chem, 2011):

Columns and labels:
Settings in all cases: read-out: IC50
[1] = target: Mitogen-activated protein kinase 8 (Homo sapiens, UniProt P45983); experiment: Inhibition of JNK1 expressed in Escherichia coli or baculovirus-infected insect cells by TR-FRET assay
[2] = target: RAC-alpha serine/threonine-protein kinase (Homo sapiens, UniProt P31749); experiment: Inhibition of AKT1 expressed in Escherichia coli or baculovirus-infected insect cells by scintillation proximity assay
RAC-alpha serine/threonine-protein kinase, sequence (P31749 whole entry): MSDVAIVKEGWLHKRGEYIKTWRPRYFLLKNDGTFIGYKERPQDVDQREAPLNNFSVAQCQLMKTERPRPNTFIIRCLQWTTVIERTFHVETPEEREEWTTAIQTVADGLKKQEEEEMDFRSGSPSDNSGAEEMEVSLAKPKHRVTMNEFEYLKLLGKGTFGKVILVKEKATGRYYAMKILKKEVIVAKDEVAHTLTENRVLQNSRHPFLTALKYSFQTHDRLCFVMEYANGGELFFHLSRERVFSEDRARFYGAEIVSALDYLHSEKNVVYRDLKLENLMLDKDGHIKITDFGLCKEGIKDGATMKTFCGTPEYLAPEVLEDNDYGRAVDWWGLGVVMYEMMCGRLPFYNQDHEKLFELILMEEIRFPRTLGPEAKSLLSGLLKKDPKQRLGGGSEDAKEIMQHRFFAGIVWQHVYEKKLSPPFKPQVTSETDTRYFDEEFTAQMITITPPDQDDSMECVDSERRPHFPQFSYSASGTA

[3] = target: T1, Inhibitor of nuclear factor kappa-B kinase subunit beta (Homo sapiens, UniProt O14920); experiment: biochemical; type: cell-based
T1 sequence (O14920 whole entry): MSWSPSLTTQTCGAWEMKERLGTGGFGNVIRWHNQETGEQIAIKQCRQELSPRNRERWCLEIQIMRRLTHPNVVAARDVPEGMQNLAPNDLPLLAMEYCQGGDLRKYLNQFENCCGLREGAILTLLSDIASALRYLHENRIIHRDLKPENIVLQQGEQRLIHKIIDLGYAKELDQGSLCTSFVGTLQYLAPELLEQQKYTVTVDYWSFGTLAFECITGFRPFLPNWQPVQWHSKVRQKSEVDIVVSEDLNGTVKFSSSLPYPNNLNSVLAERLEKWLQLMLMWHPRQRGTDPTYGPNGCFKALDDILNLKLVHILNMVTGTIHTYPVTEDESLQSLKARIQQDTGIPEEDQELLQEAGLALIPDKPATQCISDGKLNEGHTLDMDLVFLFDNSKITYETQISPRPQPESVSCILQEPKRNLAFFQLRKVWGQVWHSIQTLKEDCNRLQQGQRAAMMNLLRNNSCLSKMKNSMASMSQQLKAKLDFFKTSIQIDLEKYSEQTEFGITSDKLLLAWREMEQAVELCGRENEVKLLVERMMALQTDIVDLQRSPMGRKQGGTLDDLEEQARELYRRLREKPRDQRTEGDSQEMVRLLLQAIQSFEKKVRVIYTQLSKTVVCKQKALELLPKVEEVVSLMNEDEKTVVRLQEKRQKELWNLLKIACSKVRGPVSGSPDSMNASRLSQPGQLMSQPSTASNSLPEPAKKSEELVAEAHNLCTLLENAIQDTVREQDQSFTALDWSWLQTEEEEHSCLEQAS

Mitogen-activated protein kinase 8, sequence (P45983 whole entry): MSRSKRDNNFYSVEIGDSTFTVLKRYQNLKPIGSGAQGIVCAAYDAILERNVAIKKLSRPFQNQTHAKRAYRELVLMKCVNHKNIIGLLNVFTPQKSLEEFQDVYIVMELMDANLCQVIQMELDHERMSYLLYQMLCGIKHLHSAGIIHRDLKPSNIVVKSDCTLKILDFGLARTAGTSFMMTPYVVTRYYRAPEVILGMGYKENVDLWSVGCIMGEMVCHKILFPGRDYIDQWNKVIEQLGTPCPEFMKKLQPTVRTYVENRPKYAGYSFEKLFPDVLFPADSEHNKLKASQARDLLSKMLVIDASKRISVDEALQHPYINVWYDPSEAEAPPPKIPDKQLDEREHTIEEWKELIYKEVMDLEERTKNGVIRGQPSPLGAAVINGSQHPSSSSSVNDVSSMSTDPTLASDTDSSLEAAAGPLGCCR

Nc1ccc(-c2cnc3[nH]cc(-c4ccoc4)c3c2)cc1
IC50 [1]: < 500 nM

NCC(NC(=O)c1ccc(-c2ccnc3[nH]ccc23)s1)c1ccccc1 (stereo not drawn)
IC50 [2]: 190 nM

Cc1cc2c(-c3ccc(S(=O)(=O)N(C)CCO)cc3)ccnc2[nH]1
IC50 [3]: 15 nM
